biological target: T1, FLT3 ITD (Homo sapiens, UniProt P36888, ITD); experiment: DiscoverX KINOMEscan active site-directed competition binding, FLT3 ITD; settings: Table 12; no ATP
T1 construct: T7 phage/E. coli or HEK-293 expression
T1 sequence (P36888 27-993): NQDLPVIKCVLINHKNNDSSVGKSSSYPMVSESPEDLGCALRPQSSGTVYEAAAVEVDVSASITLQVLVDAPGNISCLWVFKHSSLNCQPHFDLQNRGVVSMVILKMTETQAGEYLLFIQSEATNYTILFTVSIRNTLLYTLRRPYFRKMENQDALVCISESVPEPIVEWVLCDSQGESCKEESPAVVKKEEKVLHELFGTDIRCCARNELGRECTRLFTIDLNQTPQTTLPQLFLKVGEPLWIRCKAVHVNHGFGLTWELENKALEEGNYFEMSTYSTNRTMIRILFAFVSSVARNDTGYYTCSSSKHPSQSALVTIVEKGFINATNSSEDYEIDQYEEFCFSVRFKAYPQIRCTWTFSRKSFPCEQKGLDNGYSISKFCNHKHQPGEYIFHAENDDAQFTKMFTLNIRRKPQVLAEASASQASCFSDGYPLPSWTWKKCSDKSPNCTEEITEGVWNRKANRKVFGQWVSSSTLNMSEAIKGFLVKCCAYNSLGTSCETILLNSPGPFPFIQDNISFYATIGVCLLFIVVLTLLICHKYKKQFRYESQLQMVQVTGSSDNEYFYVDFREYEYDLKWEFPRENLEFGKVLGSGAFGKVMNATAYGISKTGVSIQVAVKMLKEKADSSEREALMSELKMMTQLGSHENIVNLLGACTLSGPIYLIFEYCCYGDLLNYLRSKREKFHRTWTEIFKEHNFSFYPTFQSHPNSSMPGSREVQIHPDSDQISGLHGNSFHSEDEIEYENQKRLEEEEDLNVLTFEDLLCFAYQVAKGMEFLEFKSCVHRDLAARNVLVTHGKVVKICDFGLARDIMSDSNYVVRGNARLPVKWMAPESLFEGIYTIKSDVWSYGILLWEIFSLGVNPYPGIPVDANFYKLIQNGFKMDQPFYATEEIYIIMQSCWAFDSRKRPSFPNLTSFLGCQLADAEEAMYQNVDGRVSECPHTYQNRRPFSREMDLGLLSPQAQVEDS
From the text: (§1) Kinase binding data were obtained for various exemplary compounds prepared according to Examples 1-8 using the DiscoverX KINOMEscan® active site-directed competition binding site-directed assay protocol described below. […] As a result, the data report thermodynamic interaction affinities (Kd values), rather than IC50 values that are dependent on ATP concentrations. The assay uses a DNA-tagged version of the protein kinase, and an immobilized ligand bound to a solid support. Compounds that directly or indirectly prevent kinase binding to the immobilized ligand reduce the amount of kinase captured on the solid support, which is detected using an ultra-sensitive qPCR method. Affinity constants reported from the assay have been reported to be independent of the immobilized ligand used that is coupled to the solid support (See supplemental information in Fabian, M. A. et. al., (2005) Nat. Biotechnol. 23, 329-336; Wodicka, L. M. et. al., (2010) Chem. Biol. 17, 1241-1249.)
Kinase-tagged T7 phage strains were prepared in an E. coli host derived from the BL21 strain. E. coli were grown to log-phase and infected with T7 phage and incubated with shaking at 32 °C until lysis. The lysates were centrifuged and filtered to remove cell debris. The remaining kinases were produced in HEK-293 cells and subsequently tagged with DNA for qPCR detection. Streptavidin-coated magnetic beads were treated with biotinylated small molecule ligands for 30 minutes at room temperature to generate affinity resins for kinase assays. The liganded beads were blocked with excess biotin and washed with blocking buffer (SeaBlock (Pierce), 1% BSA, 0.05% Tween 20, 1 mM DTT) to remove unbound ligand and to reduce non-specific binding. […] Test compounds were prepared as 111x stocks in 100% DMSO. Kds were determined using an 11-point 3-fold compound dilution series with three DMSO control points. All compounds for Kd measurements are distributed by acoustic transfer (non-contact dispensing) in 100% DMSO. The compounds were then diluted directly into the assays such that the final concentration of DMSO was 0.9%. All reactions were performed in polypropylene 384-well plates. Each was a final volume of 0.02 mL. The assay plates were incubated at room temperature with shaking for 1 hour and the affinity beads were washed with wash buffer (1×PBS, 0.05% Tween 20). The beads were then re-suspended in elution buffer (1×PBS, 0.05% Tween 20, 0.5 μM nonbiotinylated affinity ligand) and incubated at room temperature with shaking for 30 minutes. The kinase concentration in the eluates was measured by qPCR. Binding constants (Kds) were calculated with a standard dose-response curve using the Hill equation. The Hill Slope was set to −1. Curves were fitted using a non-linear least square fit with the Levenberg-Marquardt algorithm.
as §1, with “9-12” for “1-8”
Kinase-tagged T7 phage strains were prepared in an E. coli host derived from the BL21 strain. […]

Kd | Compound
0.41 nM | COc1cn2ncc(-c3nc(N[C@H]4CNCC[C@@H]4F)c(C#N)cc3F)c2nc1C1CC1 [Compound 7, 6-(5-cyclopropyl-6-methoxypyrazolo[1,5-a]pyrimidin-3-yl)-5-fluoro-2-(((3S,4S)-4-fluoropiperidin-3-yl)amino)nicotinonitrile]
0.28 nM | COc1cn2ncc(-c3nc(N[C@H]4CNCC[C@@H]4F)c(C#N)cc3F)c2nc1C(C)(C)O [Compound 10, 5-fluoro-2-(((3S,4S)-4-fluoropiperidin-3-yl)amino)-6-(5-(2-hydroxypropan-2-yl)-6-methoxypyrazolo[1,5-a]pyrimidin-3-yl)nicotinonitrile]
0.21 nM | COc1cn2ncc(-c3nc(N[C@H]4CNCC[C@@H]4F)c(F)cc3F)c2nc1C(C)(C)O [Compound 13, 2-(3-(3,5-difluoro-6-(((3S,4S)-4-fluoropiperidin-3-yl)amino)pyridin-2-yl)-6-methoxypyrazolo[1,5-a]pyrimidin-5-yl)propan-2-ol]

same assay, conditions: Table 18; no ATP

Compound | Kd
COc1cn2ncc(-c3nc(N[C@H]4CNCC[C@@H]4F)ncc3F)c2nc1C(C)(C)O [Compound 6a, 2-(3-(5-fluoro-2-(((3S,4S)-4-fluoropiperidin-3-yl)amino)pyrimidin-4-yl)-6-methoxypyrazolo[1,5-a]pyrimidin-5-yl)propan-2-ol] | 0.23 nM
COc1cn2ncc(-c3ccnc(N[C@H]4CNCC[C@@H]4F)n3)c2nc1C1CC1 [Compound 7a, 4-(5-cyclopropyl-6-methoxypyrazolo[1,5-a]pyrimidin-3-yl)-N-((3S,4S)-4-fluoropiperidin-3-yl)pyrimidin-2-amine] | 0.53 nM
COc1cn2ncc(-c3cncc(N[C@H]4CNCC[C@@H]4F)n3)c2nc1C1CC1 [Compound 12a, 6-(5-cyclopropyl-6-methoxypyrazolo[1,5-a]pyrimidin-3-yl)-N-((3S,4S)-4-fluoropiperidin-3-yl)pyrazin-2-amine] | 0.39 nM

Next, values leading:

Kd | Compound
< 0.17 nM | COc1cn2ncc(-c3nc(N[C@@H]4CCCNC4)ncc3F)c2nc1C1CC1 [Compound 14a, (R)-4-(5-cyclopropyl-6-methoxypyrazolo[1,5-a]pyrimidin-3-yl)-5-fluoro-N-(piperidin-3-yl)pyrimidin-2-amine]
0.25 nM | COc1cn2ncc(-c3nc(N[C@H]4CNCC[C@@H]4F)ncc3F)c2nc1C1CC1 [Compound 15a, 4-(5-cyclopropyl-6-methoxypyrazolo[1,5-a]pyrimidin-3-yl)-5-fluoro-N-((3S,4S)-4-fluoropiperidin-3-yl)pyrimidin-2-amine]

— patent publication US20260374773A1, “MULTI-CYCLIC IRAK AND FLT3 INHIBITING COMPOUNDS AND USES THEREOF” (CHILDREN'S HOSPITAL MEDICAL CENTER, priority 2022, published 2026)
